Data as given in patent publication US12162858B2, “Quinoline derivatives as inhibitors of AXL/MER RTK and CSF1R” (QURIENT CO., LTD., priority 2018, dated 2024).
Like-named read-outs stand apart in the source and are kept apart here.

Target: T1, Axl (Homo sapiens, UniProt P30530)
T1 sequence (P30530 26-894): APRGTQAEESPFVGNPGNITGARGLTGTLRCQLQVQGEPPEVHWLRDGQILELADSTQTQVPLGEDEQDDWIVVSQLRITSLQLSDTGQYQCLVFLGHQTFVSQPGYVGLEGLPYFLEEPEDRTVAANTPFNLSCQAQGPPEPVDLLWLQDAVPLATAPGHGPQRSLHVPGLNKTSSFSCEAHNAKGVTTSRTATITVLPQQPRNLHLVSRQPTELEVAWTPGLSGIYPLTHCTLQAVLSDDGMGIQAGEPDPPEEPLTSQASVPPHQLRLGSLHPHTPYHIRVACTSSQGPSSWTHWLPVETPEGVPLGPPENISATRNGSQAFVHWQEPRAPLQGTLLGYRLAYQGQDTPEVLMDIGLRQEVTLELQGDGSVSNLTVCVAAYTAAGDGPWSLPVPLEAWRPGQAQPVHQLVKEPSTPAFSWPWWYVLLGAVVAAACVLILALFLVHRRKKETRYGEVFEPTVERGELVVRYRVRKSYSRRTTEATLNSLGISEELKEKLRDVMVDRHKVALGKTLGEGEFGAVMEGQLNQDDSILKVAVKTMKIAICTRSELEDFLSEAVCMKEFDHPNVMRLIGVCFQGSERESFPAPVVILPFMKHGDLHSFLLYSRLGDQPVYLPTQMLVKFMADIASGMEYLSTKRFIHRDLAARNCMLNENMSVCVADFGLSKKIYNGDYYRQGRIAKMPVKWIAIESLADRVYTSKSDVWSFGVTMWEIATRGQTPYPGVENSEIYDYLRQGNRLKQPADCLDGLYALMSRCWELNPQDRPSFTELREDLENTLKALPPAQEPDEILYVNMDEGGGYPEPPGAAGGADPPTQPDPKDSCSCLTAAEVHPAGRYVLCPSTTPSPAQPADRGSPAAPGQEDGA
Test: Cellular Axl inhibition ELISA (p-Axl, Gas6-induced) using H1299 cells
Format: cell-based
Set-up: especially H1299 cell endogenously expresses Axl; endogenous in cells; host or cells: H1299
Description: Axl is expressed in several of malignant cancer cells; especially H1299 cell endogenously expresses Axl; and an increased phosphorylation of Axl (p-Axl) can be observed, when induced by the Axl ligand, Ga6.
The H1299 cells should be 40-80% confluent in the cell culture flask. Then cells are washed with DPBS and trypsinized. After centrifugation, the cell pellet is re-suspended with pre-warmed culture medium (RPMI1640, 10% FBS) and cells are separated by pipetting 6 times up and down with a 10 ml serological pipette. The cell suspension was diluted to a final concentration of 1.25×10^5 cells/ml. Then 80 μl/well cell suspension is added to the plate. Cell-plates are incubated at 37° C./5% CO2 overnight. Compounds were dissolved by DMSO to 10 mM, and kept in nitrogen cabinet. Prepare the compounds stock plate, the reference compounds concentration starts at 0.50 mM (5 μl+95 μl DMSO), and the tested compounds start at 1.5 mM (6 μl+34 μl DMSO); Then make a 3-fold dilution series (10 doses) compounds. Then dilute compounds by the medium in the mid plate (2 μl compounds+198 μl medium). Transfer 20 μl diluted compounds from mid plate to the cell coated plate. Cell-plates are incubated at 37° C./5% CO2 for 24 h. Add 25 μl of Human Gas6 (1000 ng/ml) to 96-well plate; the final concentration of Human Gas6 is 200 ng/ml. Incubate the plates at 37° C./5% CO2 for 1 h. Remove medium and wash cells once with 300 ul/well ice-cold 1×PBS. Then remove PBS and add 100 μl/well ice-cold 1× Cell Lysis Buffer to 96-well plate. The plate is shaken for 40 min at 4° C. Then plates can be stored at −20° C. After the micro-wells strips have reached room temperature, break off the required number of micro-wells. Place the micro-wells in the strip holder. Unused micro-wells must be resealed and stored at 4° C. immediately. Add 60 μl of cell lysate to the appropriate well. Seal with tape and press firmly onto top of micro-wells. Incubate the plate at 37° C. for 2 h. Gently remove the tape and wash wells 5 times with 1× Wash Buffer, 300 μl each time for each well. Add 100 μl of reconstituted Detection Antibody (green color) to each well. Seal with tape and incubate the plate at 37° C. for 1 h. Repeat wash procedure. Add 100 μl of reconstituted HRP Linked secondary antibody to each well. Seal with tape and incubate the plate at 37° C. for 30 min. Repeat wash procedure. Add 100 μl of TMB Substrate to each well. Seal with tape and incubate the plate at 37° C. for 15 min. Add 100 μl of STOP Solution to each well. Shake gently for a few seconds. Read absorbance at 450 nm within 30 min after adding STOP Solution. Calculations and Formulas: The following calculations and formulas are used for data analysis using XL Fit software: The curve fitting was made using the Sigmoidal Dose-Response Model (Fit model, 205).

[1] = read-out: Cellular Axl activity by H1299 Elisa (IC50)
[2] = Elisa, comparison of compounds of present invention (**) vs compounds of WO2016/166250 (*), read-out: Cellular activity Axl (H1299) (IC50)

| Structure (SMILES) | IC50 [1] | IC50 [2] |
| --- | --- | --- |
| COc1cc2nccc(Oc3ccc(NC(=O)c4nn(CCOC5CC5)cc4OCC(F)(F)F)cc3F)c2cc1OC [Compound 116] | < 0.5 µM | – |
| COc1cc2nccc(Oc3ccc(NC(=O)c4nn(C5CC5)cc4OCCF)nn3)c2cc1OC [Compound 113] | < 0.5 µM | – |
| COc1cc2nccc(Oc3ccc(NC(=O)c4nn(C5CC5)cc4NCC(F)(F)F)nn3)c2cc1OC [Compound 148] | < 0.5 µM | – |
| COc1cc2nccc(Oc3ccc(NC(=O)c4nn(C5CC5)cc4OCC4CCC4)nc3)c2cc1OC [Compound 111] | < 0.5 µM | – |
| COc1cc2nccc(Oc3ccc(NC(=O)c4nn(CCOC5CC5)cc4OCC(F)(F)F)nn3)c2cc1OC [Compound 120] | 0.5 to 1 µM | – |
| COc1cc2nccc(Oc3ccc(NC(=O)c4nn(C5CC5)cc4OCC(F)F)nc3)c2cc1OC [Compound 109] | < 0.5 µM | – |
| COc1cc2nccc(Oc3ccc(NC(=O)c4nn(C5CC5)cc4OC(C)C)nc3)c2cc1OC [Compound 108] | < 0.5 µM | – |
| CNCCOc1cn(C2CC2)nc1C(=O)Nc1ccc(Oc2ccnc3cc(OC)c(OC)cc23)nn1 [Compound 160] | ≥ 1 µM | – |
| COc1cc2nccc(Oc3ccc(NC(=O)c4nn(CCN(C)C)cc4OCC(F)(F)F)nc3)c2cc1OC [Compound 9] | < 0.5 µM | – |
| CCCn1cc(OCC(F)(F)F)c(C(=O)Nc2ccc(Oc3ccnc4cc(OC)c(OC)cc34)cn2)n1 [Compound 7] | < 0.5 µM | – |
| COc1cc2nccc(Oc3ccc(NC(=O)c4nn(C5CC5)cc4OCC4CNC4)nc3)c2cc1OC [Compound 144] | ≥ 1 µM | – |
| COc1cc2nccc(Oc3ccc(NC(=O)c4nn(C5CC5)cc4NCC(F)(F)F)nc3)c2cc1OC [Compound 145] | < 0.5 µM | – |
| CNCCn1cc(OCC(F)(F)F)c(C(=O)Nc2ccc(Oc3ccnc4cc(OC)c(OC)cc34)nc2)n1 [Compound 137] | ≥ 1 µM | – |
| COc1cc2nccc(Oc3ccc(NC(=O)c4nn(C5CC5)cc4NCCC(F)(F)F)nn3)c2cc1OC [Compound 146] | < 0.5 µM | – |
| COc1cc2nccc(Oc3ccc(NC(=O)c4nn(CC5COC5)cc4OCC(F)(F)F)cn3)c2cc1OC [Compound 134] | < 0.5 µM | – |
| COc1cc2nccc(Oc3ccc(NC(=O)c4nn(C)cc4OCC(F)(F)F)nn3)c2cc1OC [Compound 102] | ≥ 1 µM | – |
| COc1cc2nccc(Oc3ccc(NC(=O)c4nn(CCOC5CC5)cc4OCC(F)(F)F)cc3)c2cc1OC [Compound 118] | < 0.5 µM | – |
| COCCn1cc(OCC(F)(F)F)c(C(=O)Nc2ccc(Oc3ccnc4cc(OC)c(OC)cc34)cn2)n1 [Compound 10] | < 0.5 µM | 0.0052 µM |
| COc1cc2nccc(Oc3ccc(NC(=O)c4nn(C5CC5)cc4OCC(F)F)nn3)c2cc1OC [Compound 162] | < 0.5 µM | – |
| CNCCn1cc(OCC(F)(F)F)c(C(=O)Nc2ccc(Oc3ccnc4cc(OC)c(OC)cc34)c(F)c2)n1 [Compound 155] | < 0.5 µM | – |
| COCCOc1cn(C2CC2)nc1C(=O)Nc1ccc(Oc2ccnc3cc(OC)c(OC)cc23)cn1 [Compound 107] | < 0.5 µM | – |
| COc1cc2nccc(Oc3ccc(NC(=O)c4nn(C5CCN(C)C5)cc4OCC(F)(F)F)cc3F)c2cc1OC (centres unmarked) [Compound 96] | < 0.5 µM | – |
| COc1cc2nccc(Oc3ccc(NC(=O)c4nn(CC(C)C)cc4OCC(F)(F)F)nn3)c2cc1OC [Compound 124] | < 0.5 µM | – |
| COCCn1cc(OCC(F)(F)F)c(C(=O)Nc2ccc(Oc3ccnc4cc(OC)c(OC)cc34)nn2)n1 [Compound 126] | < 0.5 µM | – |

| Structure (SMILES) | IC50 [1] | IC50 [2] |
| --- | --- | --- |
| COc1cc2nccc(Oc3ccc(NC(=O)c4nn(CC(C)O)cc4OCC(F)(F)F)cn3)c2cc1OC (centres unmarked) [Compound 136] | ≥ 1 µM | – |
| COCCn1cc(OCC(F)(F)F)c(C(=O)Nc2ccc(Oc3ccnc4cc(OC)c(OC)cc34)nc2)n1 [Compound 104] | 0.5 to 1 µM | – |
| COc1cc2nccc(Oc3ccc(NC(=O)c4nn(CCN)cc4OCC(F)(F)F)cn3)c2cc1OC [Compound 135] | ≥ 1 µM | – |
| CNCCOc1cn(C2CC2)nc1C(=O)Nc1ccc(Oc2ccnc3cc(OC)c(OC)cc23)cn1 [Compound 141] | ≥ 1 µM | – |
| COc1cc2nccc(Oc3ccc(NC(=O)c4nn(C5CCN(C)C5)cc4OCC(F)(F)F)cn3)c2cc1OC (centres unmarked) [Compound 133] | ≥ 1 µM | – |
| COc1cc2nccc(Oc3ccc(NC(=O)c4nn(CC5COC5)cc4OCC(F)(F)F)cc3)c2cc1OC [Compound 101] | < 0.5 µM | – |
| CNCCn1cc(OCC(F)(F)F)c(C(=O)Nc2ccc(Oc3ccnc4cc(OC)c(OC)cc34)c(C)c2)n1 [Compound 156] | ≥ 1 µM | – |
| COc1cc2nccc(Oc3ccc(NC(=O)c4nn(CCOC5CC5)cc4OCC(F)(F)F)c(F)c3)c2cc1OC [Compound 115] | < 0.5 µM | – |
| COc1cc2nccc(Oc3ccc(NC(=O)c4nn(C5CCN(C)C5)cc4OCC(F)(F)F)cc3C)c2cc1OC (centres unmarked) [Compound 98] | ≥ 1 µM | – |
| COc1cc2nccc(Oc3ccc(NC(=O)c4nn(CC5COC5)cc4OCC(F)(F)F)nc3)c2cc1OC [Compound 92] | < 0.5 µM | 0.0039 µM |
| COc1cc2nccc(Oc3ccc(NC(=O)c4nn(C5CC5)cc4OCCF)nc3)c2cc1OC [Compound 110] | < 0.5 µM | – |
| CCCn1cc(OCC(F)F)c(C(=O)Nc2ccc(Oc3ccnc4cc(OC)c(OC)cc34)cn2)n1 [Compound 12] | < 0.5 µM | – |
| COc1cc2nccc(Oc3ccc(NC(=O)c4nn(C5CCCC5)cc4OCC(F)(F)F)cn3)c2cc1OC [Compound 131] | < 0.5 µM | – |
| COCCOc1cn(CC(C)O)nc1C(=O)Nc1ccc(Oc2ccnc3cc(OC)c(OC)cc23)cn1 (centres unmarked) [Compound 150] | < 0.5 µM | – |
| COc1cc2nccc(Oc3ccc(NC(=O)c4nn(C5CCNC5)cc4OCC(F)(F)F)cn3)c2cc1OC (centres unmarked) [Compound 132] | ≥ 1 µM | – |
| CCCn1cc(OCCOC)c(C(=O)Nc2ccc(Oc3ccnc4cc(OC)c(OC)cc34)cn2)n1 [Compound 105] | < 0.5 µM | – |
| COc1cc2nccc(Oc3ccc(NC(=O)c4n[nH]cc4OCC(F)(F)F)nc3)c2cc1OC [Compound 16] | < 0.5 µM | 0.044 µM |
| COc1cc2nccc(Oc3ccc(NC(=O)c4nn(C5CCCC5)cc4OCC(F)(F)F)nn3)c2cc1OC [Compound 121] | < 0.5 µM | – |
| CCCn1cc(OCC(F)(F)F)c(C(=O)Nc2ccc(Oc3ccnc4cc(OC)c(OC)cc34)c(C(F)(F)F)c2)n1 [Compound 114] | < 0.5 µM | – |
| CCCn1cc(NCCC(F)(F)F)c(C(=O)Nc2ccc(Oc3ccnc4cc(OC)c(OC)cc34)cn2)n1 [Compound 158] | < 0.5 µM | – |
| COc1cc2nccc(Oc3ccc(NC(=O)c4nn(CCOC5CC5)cc4OCC(F)(F)F)cc3C)c2cc1OC [Compound 117] | 0.5 to 1 µM | – |
| COc1cc2nccc(Oc3ccc(NC(=O)c4nn(CCOC5CC5)cc4OCC(F)(F)F)nc3)c2cc1OC [Compound 153] | < 0.5 µM | – |
| CCCn1cc(OCC2CNC2)c(C(=O)Nc2ccc(Oc3ccnc4cc(OC)c(OC)cc34)cn2)n1 [Compound 159] | ≥ 1 µM | – |
